# Measurements: patent US5882881A, “Inhibition of cyst formation by cytoskeletal specific drugs” (priority 1998, dated 1999)
# Columns and labels:
# [1] = system: cpk mice; test: Growth and survival of cpk mice treated with taxol or methotrexate (FIG. 3B); type: in vivo, mouse
# From the text: (§1) […]. The body weights of untreated, taxol treated and methotrexate treated C57BL/6j mice between day 10 and day 45 after birth is shown in A. The body weights of untreated, taxol treated and methotrexate treated cpk mice are shown in B. Results in each group are the mean of 6 animals. Untreated and methotrexate treated cpk mice died between days 26 and 28. […].
# (§2) In a related procedure I treated both normal C57BL/6 and cpk mice at 11-14 days of age with either taxol or methotrexate as described above. Six untreated mice served as controls in this experiment.
# [2] = system: cpk mice kidney; type: in vivo, mouse; details: weekly taxol for 200 days
# Method: […]. Untreated and methotrexate (MTX) treated polycystic cpk mice all died before 30 days of age. […]. The dotted line starting at day 120 indicates the number and age of apparently healthy taxol treated polycystic mice that were sacrificed for histology studies. Pairs of mice were sacrificed at 120 days, 182 days and 210 days of age.
# (§3) Eleven homozygous cpk mice, raised and identified as in Example 6 were treated with 15 μl of 10 mg/ml taxol in DMSO through intraperitoneal injection beginning 11-14 days after birth. Following the first treatment, the mice were administered with the same treatment once every week thereafter. As controls, 6 cpk mice were treated with 15 μl intraperitoneal injections of DMSO beginning 10-12 days after birth and then once every week thereafter.
# [3] = system: homozygous cpk mice; test: Survival of cpk mice on weekly intraperitoneal treatment (Example 8, FIG. 2); type: in vivo, mouse
# From the text: Untreated and methotrexate (MTX) treated polycystic cpk mice all died before 30 days of age. Most polycystic cpk mice treated with weekly taxol survive more than 60 days. The dotted line starting at day 120 indicates the number and age of apparently healthy taxol treated polycystic mice that were sacrificed for histology studies. Pairs of mice were sacrificed at 120 days, 182 days and 210 days of age.
# In order to determine whether taxol prevents cyst formation by inhibiting cell division, another drug known to have anti-mitotic activity, methotrexate, was tested for its ability to treat homozygous cpk mice. Six cpk mice were injected intraperitoneally with 15 μl of methotrexate solution (1.1 mg/ml in water) 10-12 days after birth and once every week thereafter. The methotrexate-injected mice survived until between 18 and 27 days after birth, with only one mouse living longer than 28 days. […] Therefore, the anti-mitotic activity of taxol cannot explain its ability to treat CPK mice having a polycystic-type kidney disease. Rather, the results from in vitro tests indicate that agents which interfere with the function of the cytoskeleton, or which inhibit the delivery of membrane proteins are useful in treating cystic diseases such as Polycystic Kidney Disease.
# as §3
# [4] = system: Murine CPK Cells; test: In vitro cyst formation and cyst size in suspension culture of murine CPK cells; type: cell-based, mouse
# Method: At 10, 21 and 28 days after birth, mice having congenital polycystic kidney disease (CPK) and their phenotypically normal littermates were sacrificed by cervical dislocation. Kidneys were harvested aseptically and washed with DMEM/F12 (Sigma Chemical Co., St. Louis, Mo.) in a 1:1 mix. Each decapsulated kidney was chopped into cubes (1 mm) and incubated in 5 ml of collagenase solution composed of 1 mg/ml collagenase type IV (Worthington Biochemical Corporation, Freehold, N.J.), 1 mg/ml egg white trypsin inhibitor (Worthington) in 1:1 DMEM/F12.
# The top 12 mls, which contained both single cells and aggregates of up to 10 cells, as assessed by inverted phase-ontrast microscopy, were placed in 2 ml aliquots in the wells of plastic culture plates (Corning, N.Y.) precoated with 1% agarose in DMEM:F12 (2 ml in each well of a 6-well plate; 1 ml in each well of a 24-well plate). Cell samples were digested with further incubation for 10 minutes in 0.05% trypsin and 0.53 mM EDTA (Gibco, BRL Gaithesburg, Md.) at 37° C. All cultures were plated at a final density of 1-3×10^4 cell, per well. For growth studies of monolayer cells, identical preparations were grown on the plastic surface of the culture plates. Both the monolayers and the cell suspensions were incubated at 37° C. in a moisture saturated incubator in 5% CO2 and air.
# I used the in vitro cyst formation system of the present invention to analyze compounds that affect the process of cyst formation. To determine the therapeutic effectiveness of an agent, cyst-forming cells are suspended in a medium to which the agent has been added. These cells are then cultured on a solid phase without formation of a layer of cells on the surface, such as in the assay system described in Example 1. The extent to which the cells actually form cysts can be detected and compared to the extent of cyst formation expected if no agent were added. If the amount of cyst formation is lower than expected, then the agent is a good candidate for therapeutic intervention of cystic diseases.
# The effects of various metabolic inhibitors on cyst formation were studied in cultures derived from day 21 postnatal CPK mice. […] Taxol (25 μM), a microtubule specific inhibitor, was from Calbiochem (La Jolla, Calif.). All other chemicals were obtained from Sigma Chemical Co. Cytosine arabinoside was added at the final concentration of 20 μg/ml to inhibit DNA synthesis; α-amanitin at 100 ng/ml to inhibit RNA synthesis; cycloheximide at 40 μg/ml to inhibit protein synthesis; amiloride at 1 mM to inhibit the renal epithelial Na^+ -H^+ exchange; ouabain at 0.5 mM to inhibit Na^+ -K^+ -ATPase; brefeldin-A at 10 μg/ml to inhibit transport of surface proteins; griseofulvin at 350 μM to inhibit microtubule function; colchicine at 10 μM to inhibit microtubule polymerization; and cytochalasin-B and cytochalasin-D at 10 μM to depolymerize actin filaments.
# In the presence of these metabolic inhibitors in vitro, cyst formation was noted to be either present or absent; if present, the diameters of 20 cysts from a 0.2 ml aliquot were measured. In the same samples, ^3 H-dThd incorporation was also measured as described above. […] After each wash, cell clusters were collected by centrifuging at 200×g for 1 minute and the supernatant discarded. Washed cell clusters were resuspended in the original volume of growth medium without inhibitors, placed in agarose coated wells and incubated at 37° C. in a moisture saturated incubator in 5% CO2 and air.
# In this table, the mean cyst size is reported as ±SD with a measurement of twenty cysts. The ^3 H-dThd incorporation is reported as ±SD using measurements of three wells. The * indicates […] versus control. […] The entries listed as "NA" in the table indicate data that is not available.
# [5] = humans; approximately; cited from earlier work
# [6] = system: normal phenotype, heterozygous mice; test: Body weight of normal phenotype heterozygous C57BL/6 mice (FIG. 3A); type: in vivo, mouse; details: versus methotrexate or non-treated
# From the text: as §1, §2
structure (smiles),measurement,setting,value
CC(=O)O[C@H]1C(=O)[C@@]2(C)[C@H]([C@H](OC(=O)c3ccccc3)[C@]3(O)C[C@H](OC(=O)[C@H](O)[C@@H](NC(=O)c4ccccc4)c4ccccc4)C(C)=C1C3(C)C)[C@]1(OC(C)=O)CO[C@@H]1C[C@@H]2O [Taxol],average survival,"[1]; FIG. 3, mean of 6 animals",45 ± 2 days
same,weight gain (in words),"[1]; cpk mice, versus DMSO or methotrexate",gained weight at substantially the same or lower rate
same,lifespan (in words),[1]; versus DMSO or methotrexate-treated mice,substantially longer lifespans
same,kidney histology of control mice,[2],normal kidney histology
same,survival (in words),"[3]; weekly i.p., versus untreated or DMSO",generally experienced substantially longer life spans
same,condition of treated polycystic mice (in words),"[3]; weekly taxol, pairs sacrificed at 120, 182 and 210 days of age","remained active until sacrifice and attained adult size and weight, despite having palpably enlarged kidneys"
same,Cyst Size,"[4]; mean ± SD of twenty cysts, concentrations as in Table II, control 71 ± 22",0 μm
same,cyst formation (in words),"[4]; murine CPK cells, 24 h suspension culture, ouabain 0.5 mM, also 1 mM, b155 taxol 25 μM, colchicine 10 μM, vinblastine 1 μM, cytochalasins 10 μM, model species not given",reversibly inhibited in vitro cyst formation in both models
same,in vivo half-life,[5],6 to 12 h
same,weight gain (in words),[6],gained less weight
